These results are taken from patent publication US20080275081A1, “Novel thrombomodulin expression promoters” (Kowa Company, Ltd., priority 2002, published 2008).

Assay [1] deals with TM m-RNA expression in HUVECs. The assay is described as follows: TM mRNA expression in HUVECs by Northern blot, time course. Type of assay: cell-based, human. Particulars: 10^-5 M, incubated for the indicated time, FIG. 2. The protocol: HUVECs were plated in HuMedia-EG2 medium (Kurabo Inc.) to which 2% (vol/vol) fetal bovine serum, 50 μg/ml gentamicin, 50 ng/ml amphotericin B, 10 ng/ml hEGF, 5 ng/ml hFGF-B, 1 μg/ml hydrocortisone and 10 μg/ml heparin were added. Subsequently, pitavastatin (at a final concentration of 10^−5 M) was added to the medium, and incubated for the indicated time with 5% CO2 at 37° C. Total RNA was extracted by using TRIZOL reagent (Life Technologies, Inc.) and the levels of TM m-RNA expression were measured by the Northern blot method, which is a usual method.

Assay [2] relates to thrombomodulin (TM) antigen in normal human umbilical vein endothelial cells (HUVECs). The assay is described as follows: TM antigen level in HUVECs by enzyme immunoassay after 24 h incubation with statin. Type of assay: cell-based. Particulars: 10^-7 M to 10^-3 M, control (0.01% DMSO) = 100%, FIG. 1. The procedure:
Normal human umbilical vein endothelial cells (HUVECs) were plated at a density of 2×10^5 cells/ well in a 24-well plate with HuMedia-EG2 medium (Kurabo Inc.) to which 2% (vol/vol) fetal bovine serum, 50 μg/ml gentamicin, 50 ng/ml amphotericin B, 10 ng/ml hEGF, 5 ng/ml hFGF-B, 1 μg/ml hydrocortisone and 10 μg/ml heparin were added. Subsequently, each test substance (pitavastatin, fluvastatin and pravastatin) was added to the medium at a final concentration of 10^−7 M to 10^−3 M, and incubated for 24 hours with 5% CO2 at 37° C. After the incubation, the cells were washed 3 times with a phosphate buffer solution (pH 7.4), and suspended in 50 mmol/L Tris-HCl (pH 7.4) that contained 0.15 mol/L NaCl, 0.5% Triton X-100 and 1 mmol/L benzamide hydrchloride, then, TM was extracted. The levels of TM antigen were measured by enzyme immunoassay using the monoclonal antibodies TMmAb 2, 11 and 20. In the case where the value of the control (containing an equivalent weight of DMSO (0.01%)) is assigned to 100%, the effects on the TM antigen levels existing in the cellular proteins due to the addition of each test substance were measured.

Consider `O=C(O)C[C@H](O)C[C@H](O)/C=C/c1c(C2CC2)nc2ccccc2c1-c1ccc(F)cc1` [pitavastatin, (+)-(3R, 5S, 6E)-7-[2-cyclopropyl-4-(4-fluorophenyl)-3-quinolyl]-3,5-dihydroxy-6-heptenoic acid], for which the “ratio of the TM expression level (TM m-RNA) to the control, time course” value in assay [1] was “increased drastically after 12 hours”. For the same compound, in assay [2], the “ratio of the TM antigen level/cellular protein to the control” value is given as “significant increase level”.
